Patent US12486269B2 (Aconcagua Bio, Inc., priority 2024, dated 2025)

Key:
[1] = target: T1, COS-7/AMY3 (human calcitonin receptor (CTR) and RAMP3) (Homo sapiens, UniProt O60896+P30988); test: Amylin Receptor cAMP Assay II; format: cell-based; conditions: values marked **: Amylin Receptor cAMP Assay II; COS-7/AMY3 cells, cAMP dynamic 2 kit, 30 min; read-out: Amylin Receptor cAMP Stimulation Activity: EC50
T1 construct: expressed in transfected cells; host or cells: COS-7
How it was run: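 Agonist-induced cAMP was quantified by HTRF ratio at 665/615 nm and expressed as % of the window from vehicle to MAX control. Stimulation lasted 30 min at 37 °C in HBSS/20 mM HEPES/0.5 mM IBMX/0.1% casein, using stable human CTR+RAMP3 (AMY3) COS-7 cells at 2000 per well.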

[2] = target: T2, human calcitonin receptor (CTR) (Homo sapiens, UniProt P30988); test: Calcitonin Receptor (CTR) cAMP Assay; format: cell-based; conditions: COS7-human CTR Clone #2 stable cell line, cAMP dynamic 2 kit, 30 min; read-out: Calcitonin Receptor cAMP Stimulation Activity: EC50
T2 construct: expressed in transfected cells; host or cells: COS-7 (COS7-human CTR Clone #2)
T2 sequence (P30988 25-474): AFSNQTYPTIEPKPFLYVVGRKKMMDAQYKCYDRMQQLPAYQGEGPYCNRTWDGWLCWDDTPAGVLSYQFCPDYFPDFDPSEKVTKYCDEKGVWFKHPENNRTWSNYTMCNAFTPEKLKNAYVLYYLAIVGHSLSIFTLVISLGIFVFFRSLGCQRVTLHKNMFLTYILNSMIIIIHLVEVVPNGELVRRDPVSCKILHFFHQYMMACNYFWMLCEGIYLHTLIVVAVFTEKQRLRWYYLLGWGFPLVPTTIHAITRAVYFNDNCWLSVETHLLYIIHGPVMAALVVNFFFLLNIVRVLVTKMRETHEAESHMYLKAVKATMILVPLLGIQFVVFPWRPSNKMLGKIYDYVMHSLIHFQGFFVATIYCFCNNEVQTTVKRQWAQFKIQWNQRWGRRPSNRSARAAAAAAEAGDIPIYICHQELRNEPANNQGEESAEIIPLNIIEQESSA
How it was run: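 cAMP accumulation was measured by HTRF cAMP dynamic 2 read at 665/615 nm, 1 h at room temperature, with results scaled between vehicle and positive control. Before detection, COS7-human CTR stable cells were stimulated 30 min at 37 °C with compound (4-fold dilutions) in IBMX-containing HBSS/HEPES/casein buffer.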

T1 sequence (O60896 24-148, one chain of several): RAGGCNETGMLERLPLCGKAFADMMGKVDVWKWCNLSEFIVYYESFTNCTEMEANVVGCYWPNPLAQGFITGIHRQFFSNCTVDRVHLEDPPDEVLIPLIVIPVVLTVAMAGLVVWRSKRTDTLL

SMILES | EC50 [1] [nM] | EC50 [2] [nM]
O=c1cc(-c2c(CCC3CCOCC3)nc3c(c2-c2cc4ccnc(N[C@@H]5CCc6ncccc65)c4s2)S(=O)(=O)N2CCC[C@@H]32)o[nH]1 [Compound 198, 5-[(2S)-9-[7-[[(5R)-6,7-dihydro-5H-cyclopenta[b]pyridin-5-yl]amino]thieno[2,3-c]pyridin-2-yl]-7,7-dioxo-11-(2-tetrahydropyran-4-ylethyl)-7thia-6,12-diazatricyclo[6.4.0.02,6]dodeca-1(12),8,10-trien-10-yl]isoxazol-3-one] | 1000 | 19.2
CC(C)C1CS(=O)(=O)c2c1nc(CCC1CCOCC1)c(-c1cc(=O)[nH]o1)c2-c1ccc2c(ccn2Cc2ccc(C#N)c(F)c2)c1 (stereo not shown) [Compound 199, 2-fluoro-4-[[5-[3-isopropyl-1,1-dioxo-6-(3-oxoisoxazol-5-yl)-5-(2-tetrahydropyran-4-ylethyl)-2,3-dihydrothieno[3,2-b]pyridin-7-yl]indol-1-yl]methyl]benzonitrile] | 301 | 3.7
N#Cc1ccc(Cn2ccc3cc(-c4c(-c5cc(=O)[nH]o5)c(CCC5CCOCC5)nc5c4S(=O)(=O)N4CCC[C@@H]54)ccc32)cc1F [Compound 200, 4-[[5-[(2S)-7,7-dioxo-10-(3-oxoisoxazol-5-yl)-11-(2-tetrahydropyran-4-ylethyl)-7thia-6,12-diazatricyclo[6.4.0.02,6]dodeca-1(8),9,11-trien-9-yl]indol-1-yl]methyl]-2-fluoro-benzonitrile] | 1310 | 8.61
O=C1c2c(nc(CCC3CCOCC3)c(-c3cc(=O)[nH]o3)c2-c2ccc3c(ccn3Cc3ccc(F)c(F)c3)c2)[C@@H]2CCCN12 [Compound 201, (S)-5-(4-(1-(3,4-difluorobenzyl)-1H-indol-5-yl)-5-oxo-2-(2-(tetrahydro-2H-pyran-4-yl)ethyl)-7,8,9,9a-tetrahydro-5H-pyrido[2,3-a]pyrrolizin-3-yl)isoxazol-3(2H)-one] | 1370 | 19.3
CC(c1ccc(F)c(F)c1)n1ccc2cc(-c3c4c(nc(CCC5CCOCC5)c3-c3cc(=O)[nH]o3)[C@@H]3CCCN3C4=O)ccc21 (stereo partly drawn) [Compound 202, 5-((9aS)-4-(1-(1-(3,4-difluorophenyl)ethyl)-1H-indol-5-yl)-5-oxo-2-(2-(tetrahydro-2H-pyran-4-yl)ethyl)-7,8,9,9a-tetrahydro-5H-pyrido[2,3-a]pyrrolizin-3-yl)isoxazol-3(2H)-one] | 1750 | 66.2
N#Cc1ccc(Cn2c(=O)oc3cc(-c4c5c(nc(CCC6CCOCC6)c4-c4cc(=O)[nH]o4)[C@@H]4CCCN4C5=O)ccc32)cc1F [Compound 203, 4-[[6-[(9aS)-5-oxo-3-(3-oxoisoxazol-5-yl)-2-(2-tetrahydropyran-4-ylethyl)-1,4,7,8,9,9a-hexahydropyrido[2,3-a]pyrrolizin-4-yl]-2-oxo-1,3-benzoxazol-3-yl]methyl]-2-fluoro-benzonitrile] | 529 | 4.69
CC(c1ccc(C#N)c(F)c1)n1ccc2cc(-c3c4c(nc(CCC5CCOCC5)c3-c3cc(=O)[nH]o3)[C@@H]3CCCN3C4=O)ccc21 (stereo partly drawn) [Compound 204, 2-fluoro-4-(1-(5-((S)-5-oxo-3-(3-oxo-2,3-dihydroisoxazol-5-yl)-2-(2-(tetrahydro-2H-pyran-4-yl)ethyl)-7,8,9,9a-tetrahydro-5H-pyrido[2,3-a]pyrrolizin-4-yl)-1H-indol-1-yl)ethyl)benzonitrile] | 266 | 5.06
COc1cccc2c1CC[C@H]2Nc1nccc2cc(-c3c4c(nc(CCC5CCOCC5)c3-c3cc(=O)[nH]o3)[C@@H]3CCCN3C4=O)sc12 [Compound 205, 5-((S)-4-(7-(((R)-4-methoxy-2,3-dihydro-1H-inden-1-yl)amino)thieno[2,3-c]pyridin-2-yl)-5-oxo-2-(2-(tetrahydro-2H-pyran-4-yl)ethyl)-7,8,9,9a-tetrahydro-5H-pyrido[2,3-a]pyrrolizin-3-yl)isoxazol-3(2H)-one] | 342 | 5.7
O=C1c2c(nc(CCC3CCOCC3)c(-c3cc(=O)[nH]o3)c2-c2cc3ccnc(NCc4ccc(F)c(F)c4)c3s2)[C@@H]2CCCN12 [Compound 206, (S)-5-(4-(7-((3,4-difluorobenzyl)amino)thieno[2,3-c]pyridin-2-yl)-5-oxo-2-(2-(tetrahydro-2H-pyran-4-yl)ethyl)-7,8,9,9a-tetrahydro-5H-pyrido[2,3-a]pyrrolizin-3-yl)isoxazol-3(2H)-one] | 1590 | 26.1
COc1cccc2c1CC[C@H]2Nc1nc(C)cc2cc(-c3c4c(nc(CCc5ccc(F)cc5)c3-c3n[nH]c(=O)o3)[C@@H]3CCCN3C4=O)sc12 [Compound 207, 5-((S)-2-(4-fluorophenethyl)-4-(7-(((R)-4-methoxy-2,3-dihydro-1H-inden-1-yl)amino)-5-methylthieno[2,3-c]pyridin-2-yl)-5-oxo-7,8,9,9a-tetrahydro-5H-pyrido[2,3-a]pyrrolizin-3-yl)-1,3,4-oxadiazol-2(3H)-one] | 11.3 | 0.309
O=C1c2c(nc(CCc3ccc(F)cc3)c(-c3n[nH]c(=O)o3)c2-c2ccc3c(c2)oc(=O)n3Cc2ncc(Cl)cc2F)[C@@H]2CCCN12 [Compound 208, (S)-3-((5-chloro-3-fluoropyridin-2-yl)methyl)-6-(2-(4-fluorophenethyl)-5-oxo-3-(5-oxo-4,5-dihydro-1,3,4-oxadiazol-2-yl)-7,8,9,9a-tetrahydro-5H-pyrido[2,3-a]pyrrolizin-4-yl)benzo[d]oxazol-2(3H)-one] | 74.4 | 0.331
CC(c1ccc(C#N)c(F)c1)n1c(=O)oc2cc(-c3c4c(nc(CCc5ccc(F)cc5)c3-c3n[nH]c(=O)o3)[C@@H]3CCCN3C4=O)ccc21 (stereo partly drawn) [Compound 209, 2-fluoro-4-(1-(6-((S)-2-(4-fluorophenethyl)-5-oxo-3-(5-oxo-4,5-dihydro-1,3,4-oxadiazol-2-yl)-7,8,9,9a-tetrahydro-5H-pyrido[2,3-a]pyrrolizin-4-yl)-2-oxobenzo[d]oxazol-3(2H)-yl)ethyl)benzonitrile] | 17.2 | 0.154
O=C1c2c(nc(CCc3ccc(F)cc3)c(-c3n[nH]c(=O)o3)c2-c2cnc3c(ccn3Cc3ncc(F)cc3F)c2)[C@@H]2CCCN12 [Compound 210, (S)-5-(4-(1-((3,5-difluoropyridin-2-yl)methyl)-1H-pyrrolo[2,3-b]pyridin-5-yl)-2-(4-fluorophenethyl)-5-oxo-7,8,9,9a-tetrahydro-5H-pyrido[2,3-a]pyrrolizin-3-yl)-1,3,4-oxadiazol-2(3H)-one] | 467 | 23
O=C1c2c(nc(CCc3ccc(F)cc3)c(-c3n[nH]c(=O)o3)c2-c2cnc3c(ccn3Cc3ncc(Cl)cc3F)c2)[C@@H]2CCCN12 [Compound 211, (S)-5-(4-(1-((5-chloro-3-fluoropyridin-2-yl)methyl)-1H-pyrrolo[2,3-b]pyridin-5-yl)-2-(4-fluorophenethyl)-5-oxo-7,8,9,9a-tetrahydro-5H-pyrido[2,3-a]pyrrolizin-3-yl)-1,3,4-oxadiazol-2(3H)-one] | 434 | 3.85
COc1cccc2c1CC[C@H]2Nc1nccc2cc(-c3c(-c4n[nH]c(=O)o4)c(CCc4ccc(F)cc4)nc4c3S(=O)(=O)CC4(C)C(C)C)sc12 (stereo partly drawn) [Compound 212, 5-(5-(4-fluorophenethyl)-3-isopropyl-7-(7-(((R)-4-methoxy-2,3-dihydro-1H-inden-1-yl)amino)thieno[2,3-c]pyridin-2-yl)-3-methyl-1,1-dioxido-2,3-dihydrothieno[3,2-b]pyridin-6-yl)-1,3,4-oxadiazol-2(3H)-one] | 11700 | 526
N#Cc1ccc(Cn2c(=O)oc3cc(-c4c(-c5n[nH]c(=O)o5)c(CCc5ccc(F)cc5)nc5c4S(=O)(=O)N4CCC[C@@H]54)ccc32)nc1 [Compound 213, (S)-6-((6-(2-(4-fluorophenethyl)-5,5-dioxido-3-(5-oxo-4,5-dihydro-1,3,4-oxadiazol-2-yl)-7,8,9,9a-tetrahydropyrrolo[1′,2′:2,3]isothiazolo[4,5-b]pyridin-4-yl)-2-oxobenzo[d]oxazol-3(2H)-yl)methyl)nicotinonitrile] | 53.1 | 0.786
N#Cc1ccc(Cn2ccc3cc(-c4c5c(nc(CCc6ccc(F)cc6)c4-c4n[nH]c(=O)o4)C4CCCN4C5=O)cnc32)cc1F (stereo not shown) [Compound 214, 2-fluoro-4-((5-(2-(4-fluorophenethyl)-5-oxo-3-(5-oxo-4,5-dihydro-1,3,4-oxadiazol-2-yl)-7,8,9,9a-tetrahydro-5H-pyrido[2,3-a]pyrrolizin-4-yl)-1H-pyrrolo[2,3-b]pyridin-1-yl)methyl)benzonitrile] | 129 | 1.92
